Laboratory results as given in patent publication US10689370B2, “Cyclopropane carboxamide modulators of cystic fibrosis transmembrane conductance regulator” (Auspex Pharmaceuticals, Inc., priority 2014, dated 2020).

Assay: In vitro human liver microsomal stability assay
Type: in vitro ADME
Conditions: human liver microsomes 2 mg per mL protein, NADPH-generating system, 1 uM test compound, 37 °C, 0-240 min; for half-life % change over d0: degradation half-life relative to non-deuterated d0 (Example 1); for Clearance % change over d0: relative to non-deuterated d0 (Example 1)
Experimental: In Vitro Liver Microsomal Stability Assay
Human liver microsomal stability assays were conducted at 2 mg per mL liver microsome protein with an NADPH-generating system consisting of NADP (1 mM, pH 7.4), glucose 6-phosphate (5 mM, pH 7.4) and glucose 6-phosphate dehydrogenase (I unit/mL). Test compounds were prepared as solutions in DMSO and added to the assay mixture (1 uM, final concentration in incubation) and incubated at 37±1° C. Reactions were initiated with addition of the test compounds and stopped at 0, 60, 120 or 240 min after test article addition with stop reagent, acetonitrile. Samples were centrifuged (920×g for 10 min at 10° C.) in 96-well plates. Supernatant fractions were analyzed by LC-MS/MS to determine the percent remaining and estimate the degradation half-life of the test compounds.

| half-life % change over d0 | Clearance % change over d0 | Compound |
| --- | --- | --- |
| 13.3% | −11.9% | [2H]C([2H])([2H])C(CO)(c1cc2cc(NC(=O)C3(c4ccc5c(c4)OC(F)(F)O5)CC3)c(F)cc2n1C[C@@H](O)CO)C([2H])([2H])[2H] [Example 3, 1-(2,2-difluoro-2H-1,3-benzodioxol-5-yl)-N-[1-[(2R)-2,3-dihydroxypropyl]-6-fluoro-2-[1-hydroxy-2-methyl(^2H6)propan-2-yl]-1H-indol-5-yl]cyclopropane-1-carboxamide] |
| 0.0% | 0.0% | CC(C)(CO)c1cc2cc(NC(=O)C3(c4ccc5c(c4)OC(F)(F)O5)CC3)c(F)cc2n1C[C@@H](O)CO [Example 1, (R)-1-(2,2-difluorobenzo[d][1,3]dioxol-5-yl)-N-(1-(2,3-dihydroxypropyl)-6-fluoro-2-(1-hydroxy-2-methylpropan-2-yl)-1H-indol-5-yl)cyclopropanecarboxamide, reference compound] |
| 4.8% | −4.8% | [2H]C([2H])(O)[C@]([2H])(O)Cn1c(C(C)(C)CO)cc2cc(NC(=O)C3(c4ccc5c(c4)OC(F)(F)O5)CC3)c(F)cc21 [Example 4, (R)1-(2,2-difluoro-2H-1,3-benzodioxol-5-yl)-N-[1-[2,3-dihydroxy(2,3,3-^2H3)propyl]-6-fluoro-2-(1-hydroxy-2-methylpropan-2-yl)-1H-indol-5-yl]cyclopropane-1-carboxamide] |
| 250.3% | −71.4% | [2H]C([2H])(O)C(C)(C)c1cc2cc(NC(=O)C3(c4ccc5c(c4)OC(F)(F)O5)CC3)c(F)cc2n1C[C@@]([2H])(O)C([2H])([2H])O [Example 5, (R)1-(2,2-difluoro-2H-1,3-benzodioxol-5-yl)-N-[1-[2,3-dihydroxy(2,3,3-^2H3)propyl]-6-fluoro-2-(1-hydroxy-2-methyl(1,1-^2H2)propan-2-yl)-1H-indol-5-yl]cyclopropane-1-carboxamide] |
| 4.8% | −4.8% | [2H]C([2H])(O)[C@H](O)Cn1c(C(C)(C)CO)cc2cc(NC(=O)C3(c4ccc5c(c4)OC(F)(F)O5)CC3)c(F)cc21 [Example 8, (R)1-(2,2-difluoro-2H-1,3-benzodioxol-5-yl)-N-[1-[2,3-dihydroxy(3,3-^2H2)propyl]-6-fluoro-2-(1-hydroxy-2-methylpropan-2-yl)-1H-indol-5-yl]cyclopropane-1-carboxamide] |
| −4.2% | 4.8% | [2H]C([2H])([2H])C(CO)(c1cc2cc(NC(=O)C3(c4ccc5c(c4)OC(F)(F)O5)C([2H])([2H])C3([2H])[2H])c(F)cc2n1C[C@@H](O)CO)C([2H])([2H])[2H] [Example 7, (R)-1-(2,2-difluorobenzo[d][1,3]dioxol-5-yl)-N-(1-(2,3-dihydroxypropyl)-6-fluoro-2-(1-hydroxy-2-methyl(^2H6)propan-2-yl)-1H-indol-5-yl)(^2H4)cyclopropanecarboxamide] |
| 200.0% | −66.7% | [2H]C([2H])(O)C(C)(C)c1cc2cc(NC(=O)C3(c4ccc5c(c4)OC(F)(F)O5)CC3)c(F)cc2n1C[C@@H](O)CO [Example 2] |
| 281.8% | −73.8% | [2H]C([2H])(O)C(C)(C)c1cc2cc(NC(=O)C3(c4ccc5c(c4)OC(F)(F)O5)C([2H])([2H])C3([2H])[2H])c(F)cc2n1C[C@@H](O)CO [Example 6] |
